Article PMC12372887, “Mechanism and cellular actions of the potent AMPK inhibitor BAY-3827” (Science Advances, 2025)

Key:
Assay in all cases: Kinase panel (140 human kinases)
Type in all cases: biochemical
MLK3 = MLK3 (Homo sapiens, UniProt Q16584)
How it was run: (§1)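 Duplicate radiometric filter-binding measurements with [γ-^33P]ATP gave percent residual activity, mean and SD. Tested concentrations: 0.1 μM and, for BAY-3827, 1 μM. ATP set per kinase to 5, 20 or 50 μM, not above Km.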

IRAK4 = molecular target: T1, IRAK4 (Homo sapiens, UniProt Q9NWZ3)
T1 sequence (Q9NWZ3 1-460): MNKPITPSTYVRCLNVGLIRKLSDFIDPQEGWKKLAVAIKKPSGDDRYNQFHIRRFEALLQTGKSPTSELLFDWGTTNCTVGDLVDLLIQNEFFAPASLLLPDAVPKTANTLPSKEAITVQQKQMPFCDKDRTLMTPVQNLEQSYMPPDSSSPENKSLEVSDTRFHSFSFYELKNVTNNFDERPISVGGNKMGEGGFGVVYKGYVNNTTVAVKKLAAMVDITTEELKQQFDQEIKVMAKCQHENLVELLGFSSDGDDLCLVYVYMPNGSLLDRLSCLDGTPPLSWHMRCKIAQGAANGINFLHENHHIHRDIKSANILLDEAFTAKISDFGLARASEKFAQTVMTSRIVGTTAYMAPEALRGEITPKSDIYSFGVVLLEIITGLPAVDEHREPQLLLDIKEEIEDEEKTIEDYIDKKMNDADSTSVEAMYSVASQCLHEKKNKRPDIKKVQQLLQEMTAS
How it was run: as §1

MARK4 = MARK4 (Homo sapiens, UniProt Q96L34)
How it was run: as §1

TTBK2 = TTBK2 (Homo sapiens, UniProt Q6IQ55)
How it was run: as §1

TAO1 = TAO1 (Homo sapiens, UniProt Q7L7X3)
How it was run: as §1

BTK = BTK (Homo sapiens, UniProt Q06187)
How it was run: as §1

S6K1 = S6K1 (Homo sapiens, UniProt P23443)
How it was run: as §1

VEG-FR = settings: 0.1 μM
How it was run: as §1

TLK1 = TLK1 (Homo sapiens, UniProt Q9UKI8)
How it was run: as §1

MINK1 = MINK1 (Homo sapiens, UniProt Q8N4C8)
How it was run: as §1

ERK5 = ERK5 (Homo sapiens, UniProt Q13164)
How it was run: as §1

SRPK1 = SRPK1 (Homo sapiens, UniProt Q96SB4)
How it was run: as §1

TrkA = TrkA (Homo sapiens, UniProt P04629)
How it was run: as §1

WNK1 = WNK1 (Homo sapiens, UniProt Q9H4A3)
How it was run: as §1

PAK6 = PAK6 (Homo sapiens, UniProt Q9NQU5)
How it was run: as §1

NEK2a = NEK2a (Homo sapiens, UniProt P51955)
How it was run: as §1

RSK2 = RSK2 (Homo sapiens, UniProt P51812)
How it was run: as §1

JNK3 = JNK3 (Homo sapiens, UniProt P53779)
How it was run: as §1

TGFBR1 = TGFBR1 (Homo sapiens, UniProt P36897)
How it was run: as §1

PKCz = PKCz (Homo sapiens, UniProt Q05513)
How it was run: as §1

PAK4 = PAK4 (Homo sapiens, UniProt O96013)
How it was run: as §1

MAP4K5 = MAP4K5 (Homo sapiens, UniProt Q9Y4K4)
How it was run: as §1

SmMLCK = SmMLCK (Homo sapiens, UniProt Q15746)
How it was run: as §1

PKBb = PKBb (Homo sapiens, UniProt P31751)
How it was run: as §1

MST4 = MST4 (Homo sapiens, UniProt Q9P289)
How it was run: as §1

ASK1 = ASK1 (Homo sapiens, UniProt Q99683)
How it was run: as §1

BRSK1 = BRSK1 (Homo sapiens, UniProt Q8TDC3)
How it was run: as §1

LKB1 = LKB1 (Homo sapiens, UniProt Q15831)
How it was run: as §1

Aurora A = Aurora A (Homo sapiens, UniProt O14965)
How it was run: as §1

p38a MAPK = p38a MAPK (Homo sapiens, UniProt Q16539)
How it was run: as §1

MST3 = MST3 (Homo sapiens, UniProt Q9Y6E0)
How it was run: as §1

JAK3 = JAK3 (Homo sapiens, UniProt P52333)
How it was run: as §1

SIK3 = SIK3 (Homo sapiens, UniProt Q9Y2K2)
How it was run: as §1

AMPK = test system: AMPK
How it was run: as §1

EPH-B1 = EPH-B1 (Homo sapiens, UniProt P54762)
How it was run: as §1

[1] = 1 μM, cross-referenced with screen data of ref 37, read-out: activity remaining after treatment

Sequence of WNK1 (Q9H4A3 whole entry): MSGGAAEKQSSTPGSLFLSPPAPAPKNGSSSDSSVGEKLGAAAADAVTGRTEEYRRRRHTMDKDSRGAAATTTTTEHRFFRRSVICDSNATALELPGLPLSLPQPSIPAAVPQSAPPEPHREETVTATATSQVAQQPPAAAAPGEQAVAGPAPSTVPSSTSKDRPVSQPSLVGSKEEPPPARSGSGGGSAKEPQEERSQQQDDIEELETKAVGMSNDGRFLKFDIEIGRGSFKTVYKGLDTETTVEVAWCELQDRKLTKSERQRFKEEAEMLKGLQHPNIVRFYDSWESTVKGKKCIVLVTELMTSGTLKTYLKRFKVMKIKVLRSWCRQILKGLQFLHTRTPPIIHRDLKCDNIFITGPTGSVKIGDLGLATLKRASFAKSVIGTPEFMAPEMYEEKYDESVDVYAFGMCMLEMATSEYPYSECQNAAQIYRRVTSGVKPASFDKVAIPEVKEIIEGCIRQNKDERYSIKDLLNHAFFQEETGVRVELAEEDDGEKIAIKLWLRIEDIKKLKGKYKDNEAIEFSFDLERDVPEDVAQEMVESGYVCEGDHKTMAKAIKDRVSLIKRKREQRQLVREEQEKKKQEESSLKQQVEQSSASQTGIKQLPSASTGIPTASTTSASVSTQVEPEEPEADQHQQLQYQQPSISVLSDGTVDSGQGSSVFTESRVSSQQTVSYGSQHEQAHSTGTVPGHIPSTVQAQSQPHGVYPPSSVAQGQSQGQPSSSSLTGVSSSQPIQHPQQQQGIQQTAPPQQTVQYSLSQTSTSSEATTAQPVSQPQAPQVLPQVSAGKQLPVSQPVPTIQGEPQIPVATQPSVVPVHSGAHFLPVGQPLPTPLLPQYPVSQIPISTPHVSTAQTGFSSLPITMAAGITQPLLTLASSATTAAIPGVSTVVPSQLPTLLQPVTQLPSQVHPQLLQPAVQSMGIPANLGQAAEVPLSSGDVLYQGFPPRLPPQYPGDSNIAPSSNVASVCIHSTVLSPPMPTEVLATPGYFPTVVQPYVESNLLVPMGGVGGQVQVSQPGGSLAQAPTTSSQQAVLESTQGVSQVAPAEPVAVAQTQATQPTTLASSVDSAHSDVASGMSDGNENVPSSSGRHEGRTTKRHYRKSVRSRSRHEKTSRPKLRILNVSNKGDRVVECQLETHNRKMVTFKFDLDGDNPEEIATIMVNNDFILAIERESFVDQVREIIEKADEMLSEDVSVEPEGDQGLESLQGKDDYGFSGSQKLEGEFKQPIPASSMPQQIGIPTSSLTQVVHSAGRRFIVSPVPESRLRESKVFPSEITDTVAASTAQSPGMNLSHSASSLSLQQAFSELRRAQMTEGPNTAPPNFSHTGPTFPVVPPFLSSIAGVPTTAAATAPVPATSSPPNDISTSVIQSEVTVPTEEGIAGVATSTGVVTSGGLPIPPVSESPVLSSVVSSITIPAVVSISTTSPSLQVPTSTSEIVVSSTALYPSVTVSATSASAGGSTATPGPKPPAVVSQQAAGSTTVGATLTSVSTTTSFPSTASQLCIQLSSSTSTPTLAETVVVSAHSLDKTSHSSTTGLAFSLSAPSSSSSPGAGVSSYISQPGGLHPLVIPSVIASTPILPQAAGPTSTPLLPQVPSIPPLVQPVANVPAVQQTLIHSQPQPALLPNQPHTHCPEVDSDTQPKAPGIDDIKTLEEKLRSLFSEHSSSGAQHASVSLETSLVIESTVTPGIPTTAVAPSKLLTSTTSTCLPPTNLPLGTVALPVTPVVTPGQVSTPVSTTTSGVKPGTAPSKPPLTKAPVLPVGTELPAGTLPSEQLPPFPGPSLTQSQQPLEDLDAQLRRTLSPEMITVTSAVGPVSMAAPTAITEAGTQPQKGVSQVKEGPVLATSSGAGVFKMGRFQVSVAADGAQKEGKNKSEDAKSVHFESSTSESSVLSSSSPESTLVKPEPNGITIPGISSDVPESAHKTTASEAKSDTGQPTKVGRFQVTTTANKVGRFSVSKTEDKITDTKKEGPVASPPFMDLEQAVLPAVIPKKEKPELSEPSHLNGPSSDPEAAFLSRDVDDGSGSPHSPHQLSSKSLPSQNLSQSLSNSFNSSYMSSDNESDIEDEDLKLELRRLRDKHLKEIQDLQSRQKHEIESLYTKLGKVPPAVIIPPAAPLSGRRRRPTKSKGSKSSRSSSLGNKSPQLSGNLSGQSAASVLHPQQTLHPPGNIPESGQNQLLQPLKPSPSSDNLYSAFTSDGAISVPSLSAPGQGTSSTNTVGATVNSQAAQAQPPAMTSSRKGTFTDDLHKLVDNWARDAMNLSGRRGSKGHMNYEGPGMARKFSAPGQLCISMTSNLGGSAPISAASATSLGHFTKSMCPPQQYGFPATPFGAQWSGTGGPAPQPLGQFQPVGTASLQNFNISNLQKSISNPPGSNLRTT
Sequence of MINK1 (Q8N4C8 whole entry): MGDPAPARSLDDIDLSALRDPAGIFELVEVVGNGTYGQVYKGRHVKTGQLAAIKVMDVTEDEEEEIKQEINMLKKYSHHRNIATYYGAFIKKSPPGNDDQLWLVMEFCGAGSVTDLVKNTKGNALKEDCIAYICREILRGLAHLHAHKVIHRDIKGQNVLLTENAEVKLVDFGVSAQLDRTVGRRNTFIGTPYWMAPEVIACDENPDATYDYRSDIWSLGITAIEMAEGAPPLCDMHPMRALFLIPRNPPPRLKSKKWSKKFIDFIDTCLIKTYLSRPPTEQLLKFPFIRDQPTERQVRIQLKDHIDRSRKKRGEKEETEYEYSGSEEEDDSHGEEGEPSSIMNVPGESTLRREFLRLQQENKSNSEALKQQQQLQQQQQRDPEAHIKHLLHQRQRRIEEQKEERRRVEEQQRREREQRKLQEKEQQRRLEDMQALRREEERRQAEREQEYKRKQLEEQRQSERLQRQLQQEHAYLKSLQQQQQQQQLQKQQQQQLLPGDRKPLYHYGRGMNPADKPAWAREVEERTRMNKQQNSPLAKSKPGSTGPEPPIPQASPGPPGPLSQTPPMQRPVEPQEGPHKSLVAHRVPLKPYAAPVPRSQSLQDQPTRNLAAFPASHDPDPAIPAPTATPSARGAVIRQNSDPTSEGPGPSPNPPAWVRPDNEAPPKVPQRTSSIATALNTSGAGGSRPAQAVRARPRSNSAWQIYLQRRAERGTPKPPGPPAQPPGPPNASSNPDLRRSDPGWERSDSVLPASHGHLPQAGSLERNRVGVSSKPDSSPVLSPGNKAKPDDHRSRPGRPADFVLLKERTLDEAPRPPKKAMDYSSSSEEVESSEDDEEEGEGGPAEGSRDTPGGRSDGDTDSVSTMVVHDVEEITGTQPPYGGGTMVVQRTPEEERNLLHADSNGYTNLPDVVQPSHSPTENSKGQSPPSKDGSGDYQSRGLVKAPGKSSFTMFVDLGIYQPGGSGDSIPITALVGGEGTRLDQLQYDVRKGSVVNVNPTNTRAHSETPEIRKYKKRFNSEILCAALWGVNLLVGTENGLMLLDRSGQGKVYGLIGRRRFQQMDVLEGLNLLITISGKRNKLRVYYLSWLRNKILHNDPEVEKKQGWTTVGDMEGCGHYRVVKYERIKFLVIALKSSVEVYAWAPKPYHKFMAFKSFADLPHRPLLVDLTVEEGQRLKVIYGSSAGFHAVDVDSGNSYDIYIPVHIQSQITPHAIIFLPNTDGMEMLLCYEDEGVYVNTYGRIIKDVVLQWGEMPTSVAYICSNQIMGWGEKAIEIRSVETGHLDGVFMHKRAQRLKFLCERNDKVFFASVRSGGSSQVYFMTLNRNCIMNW
Sequence of RSK2 (P51812 whole entry): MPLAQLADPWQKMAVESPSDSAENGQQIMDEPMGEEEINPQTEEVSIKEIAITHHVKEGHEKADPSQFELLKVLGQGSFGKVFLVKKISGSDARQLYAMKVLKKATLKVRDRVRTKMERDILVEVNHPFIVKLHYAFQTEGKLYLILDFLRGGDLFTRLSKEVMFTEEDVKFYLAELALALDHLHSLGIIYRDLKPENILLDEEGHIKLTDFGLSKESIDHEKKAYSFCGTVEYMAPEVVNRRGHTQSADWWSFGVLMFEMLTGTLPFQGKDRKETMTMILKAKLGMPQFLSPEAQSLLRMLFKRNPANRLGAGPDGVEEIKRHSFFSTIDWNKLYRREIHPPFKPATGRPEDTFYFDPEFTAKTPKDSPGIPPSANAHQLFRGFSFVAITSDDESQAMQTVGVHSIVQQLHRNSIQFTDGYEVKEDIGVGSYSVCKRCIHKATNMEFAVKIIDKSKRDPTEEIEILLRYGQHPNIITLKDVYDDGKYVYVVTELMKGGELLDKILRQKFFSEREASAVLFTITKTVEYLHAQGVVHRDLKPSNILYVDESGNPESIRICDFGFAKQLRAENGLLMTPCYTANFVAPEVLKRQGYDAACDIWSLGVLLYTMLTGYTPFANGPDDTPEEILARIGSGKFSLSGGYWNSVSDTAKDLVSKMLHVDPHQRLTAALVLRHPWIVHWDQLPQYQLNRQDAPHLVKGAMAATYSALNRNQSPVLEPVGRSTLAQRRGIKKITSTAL
Sequence of NEK2a (P51955 whole entry): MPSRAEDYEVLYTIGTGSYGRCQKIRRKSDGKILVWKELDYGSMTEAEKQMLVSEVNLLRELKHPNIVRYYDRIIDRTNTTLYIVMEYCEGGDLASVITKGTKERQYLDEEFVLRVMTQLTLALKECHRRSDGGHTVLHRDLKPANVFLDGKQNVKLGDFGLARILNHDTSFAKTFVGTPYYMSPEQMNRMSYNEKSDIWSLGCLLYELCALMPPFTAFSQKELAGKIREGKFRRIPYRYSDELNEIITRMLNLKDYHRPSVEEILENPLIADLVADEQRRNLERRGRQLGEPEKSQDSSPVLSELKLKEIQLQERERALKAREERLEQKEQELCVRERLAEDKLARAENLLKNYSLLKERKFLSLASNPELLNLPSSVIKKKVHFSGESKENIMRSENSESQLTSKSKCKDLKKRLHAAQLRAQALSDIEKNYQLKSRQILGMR

Structure (SMILES) | remaining activity at 0.1 µM (MLK3) [%] | remaining activity at 0.1 µM (IRAK4) [%] | remaining activity at 0.1 µM (MARK4) [%] | remaining activity at 0.1 µM (TTBK2) [%] | remaining activity at 0.1 µM (TAO1) [%] | remaining activity at 0.1 µM (BTK) [%] | remaining activity at 0.1 µM (S6K1) [%] | Kinase activity remaining (%) (VEG-FR) | remaining activity at 0.1 µM (TLK1) [%] | remaining activity at 0.1 µM (MINK1) [%] | remaining activity at 0.1 µM (ERK5) [%] | remaining activity at 0.1 µM (SRPK1) [%] | remaining activity at 0.1 µM (TrkA) [%] | remaining activity at 0.1 µM (WNK1) [%] | remaining activity at 0.1 µM (PAK6) [%] | remaining activity at 0.1 µM (NEK2a) [%] | remaining activity at 0.1 µM (RSK2) [%] | remaining activity at 0.1 µM (JNK3) [%] | remaining activity at 0.1 µM (TGFBR1) [%] | remaining activity at 0.1 µM (PKCz) [%] | further results
CCc1ccccc1C(=O)Nc1n[nH]c2c(C)c(F)c(C3C(C#N)=C(C)N(C)C(C)=C3C#N)cc12 [BAY-3827, N-[5-(3,5-dicyano-1,2,6-trimethyl-4H-pyridin-4-yl)-6-fluoro-7-methyl-1H-indazol-3-yl]-2-ethylbenzamide] | 85 | 111 | 98 | 93 | 94 | 85 | 87 | 89 | 118 | ≤ 50 | 80 | 111 | 87 | 101 | 106 | 122 | 90 | 88 | 86 | 112 | remaining activity at 1 µM (IRAK4; [1]): ≥ 99%; inhibition at 0.1 µM (MINK1): ~60%; remaining activity at 1 µM (WNK1; [1]): ≥ 99%; remaining activity at 1 µM (RSK2; [1]): ≤ 50%; remaining activity at 0.1 µM (PAK4): 80%; remaining activity at 0.1 µM (MAP4K5): 97%; remaining activity at 0.1 µM (SmMLCK): 76%; remaining activity at 0.1 µM (PKBb): 93%; remaining activity at 0.1 µM (MST4): 64%; remaining activity at 0.1 µM (ASK1): 95%; remaining activity at 0.1 µM (BRSK1): 77%; remaining activity at 0.1 µM (LKB1): 97%; remaining activity at 0.1 µM (Aurora A): 90%; remaining activity at 0.1 µM (p38a MAPK): 97%; remaining activity at 0.1 µM (MST3): ≤ 50%; remaining activity at 0.1 µM (JAK3): 90%; remaining activity at 0.1 µM (SIK3): 99%; inhibition of kinase (AMPK; 0.1 μM): > 90%; activity remaining after treatment (AMPK; 1 μM, cross-referenced with screen data of ref 37): ≤ 50%; remaining activity at 0.1 µM (EPH-B1): 91%
CC1=C(C#N)C(c2ccc3c(c2)c(NC(=O)c2ccccc2C)nn3C)C(C#N)=C(C)N1 [BAY-974, N-[5-(3,5-dicyano-2,6-dimethyl-1,4-dihydropyridin-4-yl)-1-methylindazol-3-yl]-2-methylbenzamide] | 90 | 92 | 96 | 91 | 88 | 94 | 97 | 95 | 100 | 79 | 70 | 97 | 97 | 117 | 102 | 121 | 117 | 104 | 113 | 103 | remaining activity at 0.1 µM (PAK4): 96%; remaining activity at 0.1 µM (MAP4K5): 89%; remaining activity at 0.1 µM (SmMLCK): 80%; remaining activity at 0.1 µM (PKBb): 99%; remaining activity at 0.1 µM (MST4): 98%; remaining activity at 0.1 µM (ASK1): 83%; remaining activity at 0.1 µM (BRSK1): 96%; remaining activity at 0.1 µM (LKB1): 104%; remaining activity at 0.1 µM (Aurora A): 79%; remaining activity at 0.1 µM (p38a MAPK): 108%; remaining activity at 0.1 µM (MST3): 89%; remaining activity at 0.1 µM (JAK3): 106%; remaining activity at 0.1 µM (SIK3): 81%; Kinase activity remaining (%) (AMPK; 0.1 μM): 98%; inhibition of kinase (AMPK; 0.1 μM): almost no effect; remaining activity at 0.1 µM (EPH-B1): 107%
